For seven molecules, GI50 and TGI results are on record in PubChem BioAssay (NCI).

Where “and” joins values, the source holds several entries; their conditions need not be identical. Equal entries are not always repeated.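 Cells were grown in 96-well plates and exposed to each compound for 48 hours at five concentrations; endpoints were interpolated linearly between bracketing concentrations, or set to the highest concentration if not reached. GI50 is the concentration that inhibits growth by half. The concentration for full growth arrest is given as TGI.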

Some test systems named below: OVCAR-5 ovarian; A498 renal; HCT-116 colon; OVCAR-3 ovarian; HOP-62 NSCLC; MALME-3M melanoma; HCC-2998 colon; SNB-19 CNS; MDA-MB-231 breast; CCRF-CEM leukemia.
What all share (assay): NCI tumour cell line growth inhibition, 48 h

For the molecule `Nc1c2ccccc2nc2ccccc12`, the GI50 was 2.71 µM and 3.36 µM in the assay with OVCAR-5 ovarian; 1.07 µM and 2.18 µM with A498 renal; 0.702 µM and 2.17 µM in the assay with HCT-116 colon; 2.2 µM and 2.91 µM in the assay with OVCAR-3 ovarian; 1.66 µM and 3.66 µM in the assay with HOP-62 NSCLC; 1.86 µM and 3.69 µM in the assay with MALME-3M melanoma. For the same molecule, the GI50 was 1.81 µM with HCC-2998 colon; 1.82 µM and 3.61 µM with SNB-19 CNS; 1.99 µM and 2.51 µM in the assay on MDA-MB-231 breast; 1.69 µM and 2.3 µM in the assay with CCRF-CEM leukemia. The TGI with OVCAR-5 ovarian is 13.4 µM and 8.16 µM; in the assay on A498 renal it was 2.37 µM and 7.28 µM; in the assay on HCT-116 colon it was 8.31 µM and 10.5 µM; in the assay with OVCAR-3 ovarian it was 6.77 µM and 8.91 µM; in the assay with HOP-62 NSCLC, 4.96 µM and 15.2 µM; in the assay on MALME-3M melanoma, 3.66 µM and 9.62 µM. The TGI in the assay on HCC-2998 colon was 3.93 µM; in the assay with SNB-19 CNS, 12.9 µM and 20.7 µM; in the assay on MDA-MB-231 breast, 6.09 µM and 8.37 µM; in the assay on CCRF-CEM leukemia, 7.27 µM and 65.4 µM.
Consider `CN1CC[C@H](N(C)C(=O)N2CC(c3cc(F)ccc3F)=C[C@@]2(CO)c2ccccc2)[C@H](F)C1`, for which the GI50 is 0.0669 µM and 0.0212 µM in the assay on OVCAR-5 ovarian; 0.0211 µM in the assay on A498 renal; 0.00335 µM in the assay on HCT-116 colon; 0.0196 µM in the assay on OVCAR-3 ovarian; 0.037 µM with HCC-2998 colon; 0.0259 µM in the assay on SNB-19 CNS. Besides, the GI50 with MDA-MB-231 breast was 0.0112 µM; in the assay with CCRF-CEM leukemia it was 0.017 µM. In addition, the TGI with OVCAR-5 ovarian is above 100 µM; in the assay on A498 renal, 24.8 µM; in the assay on HCT-116 colon it was above 100 µM; with MALME-3M melanoma, 27.9 µM; in the assay on HCC-2998 colon it was 13.4 µM; with SNB-19 CNS, above 100 µM. For the same molecule, the TGI in the assay on MDA-MB-231 breast is 15.3 µM; with CCRF-CEM leukemia, above 100 µM.
On to `O=C(CNC(=O)c1cccc2ccccc12)Nc1ccccc1Oc1ccc(O)cc1`, for which the GI50 with OVCAR-5 ovarian was 6.3 µM; in the assay on A498 renal, 1.01 µM; in the assay on HCT-116 colon, 0.978 µM; in the assay with OVCAR-3 ovarian it was 0.744 µM; in the assay with HOP-62 NSCLC it was 1.35 µM; in the assay on HCC-2998 colon, 8.98 µM. Also, the GI50 in the assay with SNB-19 CNS is 1.42 µM; with MDA-MB-231 breast it was 3.18 µM; in the assay on CCRF-CEM leukemia it was 0.94 µM. Besides, the TGI was above 25 µM in the assay with OVCAR-5 ovarian; 9.97 µM in the assay with A498 renal; above 25 µM in the assay on HCT-116 colon; above 25 µM in the assay on OVCAR-3 ovarian; above 25 µM in the assay with HOP-62 NSCLC; above 25 µM in the assay with HCC-2998 colon. Besides, the TGI in the assay with SNB-19 CNS, in the assay with MDA-MB-231 breast and in the assay on CCRF-CEM leukemia was above 25 µM each time.
For the molecule `COc1cc2nc(NC3CCC3)nc(NC3CCN(C(C)C)CC3)c2cc1OC`, the GI50 was 4.01 µM in the assay with OVCAR-5 ovarian; 1.24 µM with A498 renal; 1.78 µM in the assay on HCT-116 colon; 4.23 µM in the assay with OVCAR-3 ovarian; 2.6 µM in the assay on HOP-62 NSCLC; 1.76 µM in the assay with MALME-3M melanoma. Further, the GI50 was 1.7 µM in the assay on HCC-2998 colon, 1.84 µM in the assay on MDA-MB-231 breast and 2.21 µM in the assay with CCRF-CEM leukemia. Moreover, the TGI with OVCAR-5 ovarian was 19.1 µM; in the assay on A498 renal, 7.05 µM; with HCT-116 colon, 4.39 µM; with OVCAR-3 ovarian, 16.6 µM; in the assay with HOP-62 NSCLC, 11 µM; in the assay with MALME-3M melanoma, 3.23 µM. Moreover, the TGI with HCC-2998 colon came to 3.46 µM; in the assay on MDA-MB-231 breast it was 3.79 µM; in the assay on CCRF-CEM leukemia, 5.11 µM.
In the case of `CC(=O)O[C@@H]1[C@H]2O[C@H]2[C@H]2O[C@@]2(COC(=O)c2ccccc2)[C@H]1OC(C)=O`, the TGI in the assay on OVCAR-5 ovarian, in the assay on A498 renal, with HCT-116 colon, in the assay with OVCAR-3 ovarian, with MALME-3M melanoma and with HCC-2998 colon was above 100 µM in each case. In addition, the TGI in the assay with SNB-19 CNS, in the assay on MDA-MB-231 breast and with CCRF-CEM leukemia was above 100 µM throughout.
Take `N#CCC1CCN(c2nc(Nc3ccc(N4CCC(O)CC4)cc3)c3c(=O)[nH]ncc3n2)CC1`: the GI50 is 1.22 µM in the assay on OVCAR-5 ovarian; 0.342 µM with A498 renal; 0.345 µM in the assay on HCT-116 colon; 0.801 µM with HOP-62 NSCLC; 1.71 µM in the assay with HCC-2998 colon; 5.02 µM in the assay with SNB-19 CNS. Besides, the GI50 is 1.17 µM in the assay with MDA-MB-231 breast and 1.01 µM in the assay with CCRF-CEM leukemia. For the same molecule, the TGI in the assay with OVCAR-5 ovarian was above 100 µM; with A498 renal it was 1.74 µM; in the assay on HCT-116 colon, above 100 µM; with OVCAR-3 ovarian, above 100 µM; with HOP-62 NSCLC, above 100 µM; with HCC-2998 colon, above 100 µM. For the same molecule, the TGI with SNB-19 CNS, in the assay on MDA-MB-231 breast and in the assay on CCRF-CEM leukemia was above 100 µM each time.
Consider `O=C(/C=C/c1ccccc1)c1ccccn1`, for which the GI50 with OVCAR-5 ovarian is 11.5 µM and 24.2 µM; in the assay on HCT-116 colon it was 6.9 µM and 15.4 µM; in the assay with HOP-62 NSCLC it was 13.9 µM and 34.7 µM; in the assay with SNB-19 CNS, 15.1 µM and 31.9 µM; with MDA-MB-231 breast it was 15.6 µM and 35.8 µM. The TGI was 29 µM and > 100 µM in the assay on OVCAR-5 ovarian; 29.6 µM and 37.6 µM with A498 renal; 19.4 µM and 30.3 µM in the assay on HCT-116 colon; 26.8 µM and 43.3 µM in the assay with OVCAR-3 ovarian; 29.3 µM and > 100 µM in the assay with HOP-62 NSCLC; 26.7 µM and 35.8 µM with HCC-2998 colon. The TGI was 31 µM and > 100 µM in the assay on SNB-19 CNS; 30.7 µM and > 100 µM with MDA-MB-231 breast; 45.4 µM and 57.6 µM in the assay on CCRF-CEM leukemia.
